Experimental findings from patent publication US12268682B2, “Anticancer drug FL118 formulation for treatment of human cancer” (CANGET BIOTEKPHARMA, LLC, priority 2019, dated 2025) are described below.

The test system of this experiment is MM cell lines. Kind of experiment: BLI-based cytotoxicity assay using LUC-transduced MM cell lines. On the set-up: species or system human. The method, then:
Cell lines and culture: Luciferase (LUC)-transduced MM cell lines RPMI 8226, JJN3, UM9, MM1.s, U266, L363, and OPM-2 were cultured in RPMI 1640 (Life Technologies), supplemented with 10% heat-inactivated HyClone FetalClone I serum (GE Healthcare Life Sciences) and (penicillin, 10.000 U/mL; streptomycin, […]; InVitrogen,). HS-5 was cultured in DMEM (Life Technologies), supplemented with heat-inactivated FBS (Sigma) and antibiotics.

Take `CC[C@@]1(O)C(=O)OCc2c1cc1n(c2=O)Cc2cc3cc4c(cc3nc2-1)OCO4` [FL118]: for the setting “5 of 6 MM cell lines”, the “lysis of MM cell lines in the presence of BMMSCs” value is “not reduced, or even increased”. Also, for the setting “MM1.s and UM9 co-cultured with BMMSCs or HS-5, 48 hours”, the “stroma-cell induced drug resistance against bortezomib and doxorubicin” value is “effectively abrogated”. For the setting “MM cell lines, 48 hours”, the “combination activity with melphalan or bortezomib” value is “at least additive activity”. In addition, the “lysis of MM cell line in the presence of BMMSCs” value (cell line UM9) was “minimal reduction”.
